Where “and” joins values, the source holds several entries; their conditions need not be identical. Equal entries are not always repeated.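 Following 48 hours of exposure in 96-well plates, responses at five concentrations were used to interpolate endpoints linearly. At the GI50, growth is halved. TGI marks complete inhibition of growth.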
Columns and labels:
Assay in all cases: DTP human tumour cell line panel, 48 h
786-0 renal = test system: 786-0 renal
SF-295 CNS = test system: SF-295 CNS
OVCAR-8 ovarian = test system: OVCAR-8 ovarian
MALME-3M melanoma = test system: MALME-3M melanoma
IGROV1 ovarian = test system: IGROV1 ovarian
SR leukemia = test system: SR leukemia
DU-145 prostate = test system: DU-145 prostate
HOP-92 NSCLC = test system: HOP-92 NSCLC
HCT-116 colon = test system: HCT-116 colon
U251 CNS = test system: U251 CNS

Row | Structure (SMILES) | GI50 (786-0 renal) | TGI (786-0 renal) | GI50 (SF-295 CNS) | TGI (SF-295 CNS) | GI50 (OVCAR-8 ovarian) | TGI (OVCAR-8 ovarian) | GI50 (MALME-3M melanoma) | TGI (MALME-3M melanoma) | GI50 (IGROV1 ovarian) | TGI (IGROV1 ovarian) | GI50 (SR leukemia) | TGI (SR leukemia) | GI50 (DU-145 prostate) | TGI (DU-145 prostate) | GI50 (HOP-92 NSCLC) | TGI (HOP-92 NSCLC) | GI50 (HCT-116 colon) | TGI (HCT-116 colon) | GI50 (U251 CNS) | TGI (U251 CNS)
1 | O=C(c1nc2ccccc2[nH]1)C1C(c2cccc([N+](=O)[O-])c2)C2CC3CCCCC3N2[C@@]12C(=O)Nc1cc(Cl)ccc12 (stereo partly specified) | 1890 nM | 4.52 µM | 1560 nM | 3.58 µM | 2.68 µM | 20.1 µM | 1420 nM | 2.96 µM | 1540 nM | 3.69 µM | 2230 nM | 9.25 µM | 1550 nM | 3.26 µM | 1370 nM | 3.64 µM | – | – | – | –
2 | CCCCOc1nc2ccccc2cc1C1CNC(=O)c2ccccc2N1 (stereo unspecified) | 3140 nM | 11.1 µM | 1630 nM | 8.49 µM | 3.64 µM | 15.7 µM | 5820 nM | 38.4 µM | 4630 nM | 22.9 µM | 1130 nM | 12.5 µM | 3190 nM | 12 µM | 4570 nM | 26.6 µM | 1920 nM | 5.47 µM | 3.35 µM | 14.2 µM
3 | CC(=O)O[C@H]1Cc2c([nH]c3ccccc23)[C@@H](c2ccc(Cl)cc2)N1C(=O)CCNC(C)(C)C | 3640 nM | 7.92 µM | 4540 nM | 9.01 µM | 4.86 µM | 9.45 µM | 4260 nM | 8.96 µM | 2190 nM | 7.77 µM | 1090 nM | 6.11 µM | 4010 nM | 8.45 µM | 1100 nM | 5.61 µM | 1640 nM | 6.32 µM | 4.33 µM | 8.62 µM
4 | CCCCCCCC(=O)O[C@H]1[C@H]2[C@@H](CC1(C)C)C(=O)[C@]13O[C@H]1C(=O)[C@]1(CO1)[C@]23C | – | 14.1 µM | 20200 nM | 43.7 µM and 36.5 µM | 8.06 µM | 24.5 µM and 8.05 µM | – | 10.9 µM and 6.34 µM | 20900 nM | 36.6 µM and 11.4 µM | – | > 38.7 µM | – | 27.9 µM | 2830 nM | 6.03 µM and 4.81 µM | 3070 nM and 1630 nM | 12.4 µM and 3.8 µM | 5.8 µM | 11.9 µM and 22.8 µM
5 | S=C1NC2=C(CCOc3c2ccc2ccccc32)C(c2ccc(Cl)cc2)N1 (stereo unspecified) | 50500 nM | > 100 µM | 31900 nM | > 100 µM | 44.7 µM | > 100 µM | 23800 nM | 73.8 µM | 52800 nM | > 100 µM | 30600 nM | > 100 µM | 27900 nM | > 100 µM | 30500 nM | > 100 µM | – | – | 35.5 µM | > 100 µM
6 | Clc1ccc2c(NCCNc3nc(Cl)nc4ccccc34)ccnc2c1 | 1080 nM | 2.46 µM | 1750 nM | 3.26 µM | 1.49 µM | 3.34 µM | 1760 nM | 3.47 µM | 1130 nM | 2.7 µM | 268 nM | 0.866 µM | 1260 nM | 2.59 µM | 1740 nM | 3.4 µM | 218 nM | 0.531 µM | – | –
7 | COc1cc2cc(C(=O)N3C[C@H](CCl)c4c3cc(O)c3ccccc43)[nH]c2c(OC)c1OC | 17.4 nM | 0.493 µM and 0.0519 µM | – | 1.23 µM | 1.67 µM | 1.13 µM and 3.53 µM | 25.9 nM | 0.442 µM and 0.0827 µM | – | – | – | 0.0672 µM | < 10 nM | 1.53 µM and 0.213 µM | – | 2.65 µM | 16.5 nM | 59 µM | 0.019 µM | 3.23 µM and 3.06 µM
8 | COC(=O)[C@@H](C)C[C@H](Cc1ccccc1)NC(=O)c1csc([C@@H](C[C@H](C(C)C)N(C)C(=O)[C@@H](NC(=O)CN(C)C)C2CC2)OC(C)=O)n1 | 38.2 nM | > 16.5 µM | 16.8 nM | 0.329 µM | 0.0495 µM | > 16.5 µM | 36.5 nM | > 16.5 µM | 24.5 nM | > 16.5 µM | 1.65 nM | > 16.5 µM | 16.9 nM | – | – | – | 15.4 nM | > 5.86 µM | 0.055 µM | > 16.5 µM
9 | N#CCCCCCn1c2ccccc2c2c3c(c4c5ccccc5[nH]c4c21)C(=O)N(O)C3=O | 1640 nM | 3.23 µM | 2440 nM | 6.95 µM | – | – | 1960 nM | 5.01 µM | 1120 nM | 3.89 µM | 434 nM | > 100 µM | 1060 nM | 12.2 µM | 2460 nM | 5.24 µM | 894 nM | 2.37 µM | 0.435 µM | 1.57 µM
10 | Cn1cc(C2=C(c3cccc(Cl)c3)C(=O)NC2=O)c2ccccc21 | 20400 nM | > 25 µM | > 25000 nM | > 25 µM | > 25 µM | > 25 µM | > 25000 nM | > 25 µM | 12300 nM | > 25 µM | 13900 nM | > 25 µM | > 25000 nM | > 25 µM | – | – | > 25000 nM | > 25 µM | 16.5 µM | > 25 µM
